Some test systems named below: OVCAR-4; SNB-75; SNB-19; SNB-78; SF-295; SF-268; Malme-3M; DMS-273; HCC 2998; HOP-18; KM12; SK-MEL-2; OVCAR-8; A549; NCI-H460; OVCAR-3; HL-60; SN12C; MCF7; K562.
Experiment in all cases: NCI anticancer screen, dose series, 48 h

The values that follow come from ChEMBL document CHEMBL1201862, “PubChem BioAssay data set” (2004).

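Values below derive from 48-hour exposures of cells grown in 96-well plates, with endpoints linearly interpolated between the two concentrations bracketing the appropriate inhibition level. At the GI50, growth is halved.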 Active and inactive are the calls of the source. Cut-off read from the data, not from the text of the source: active = GI50 up to about 1.1 µM and inactive = higher.

For `NC(CO)c1ccccc1` (centres undefined), the GI50 in the test on OVCAR-4, with SNB-75, with SNB-19, in the test with SNB-78, with SF-295 and in the test with SF-268 was > 100 µM (inactive) in each case. The GI50 was > 100 µM (inactive) in the test with Malme-3M; > 100 µM (inactive) in the test with DMS-273; > 100 µM (inactive) in the test with HCC 2998; 24.7 µM (inactive) with HOP-18; > 100 µM (inactive) in the test with KM12; > 100 µM (inactive) with SK-MEL-2. In addition, the GI50 in the test with OVCAR-8, with A549, in the test with NCI-H460, in the test on OVCAR-3 and with HL-60 was > 100 µM (inactive) throughout.

As for `C/C=C(/C)C(=O)O[C@@H]1c2c(C)coc2C[C@H]2CC[C@H](O)[C@H](C)[C@]21C`, the GI50 is 39.4 µM (inactive) in the test on OVCAR-4; 31.3 µM (inactive) in the test on SN12C; > 100 µM (inactive) in the test with SNB-19; 26.3 µM (inactive) in the test with MCF7; > 100 µM (inactive) in the test on SF-295; 70.8 µM (inactive) in the test on SF-268. The GI50 in the test on Malme-3M is 26.9 µM (inactive); in the test with HCC 2998, > 100 µM (inactive); in the test with K562, 38 µM (inactive); with KM12, 46.2 µM (inactive); in the test on OVCAR-8, 42.5 µM (inactive); in the test with NCI-H460, > 100 µM (inactive). Besides, the GI50 with OVCAR-3 is 27 µM (inactive); in the test with HL-60 it was 34.5 µM (inactive).

Turning to `COc1ccc2[nH]c3c(C)c4cc[n+](C)cc4c(C)c3c2c1`, the GI50 in the test with OVCAR-4 is 3.37 µM (inactive); in the test on SNB-75, 0.228 µM (active); with SN12C, 0.116 µM (active); in the test with SNB-19, 0.273 µM (active); in the test with SNB-78, 0.571 µM (active); in the test with MCF7, 2.39 µM (inactive). Moreover, the GI50 with SF-295 was 0.332 µM (active); with SF-268, 0.197 µM (active); in the test with Malme-3M it was 1.06 µM (active); with DMS-273, 1.09 µM (active); in the test on HCC 2998, 3.15 µM (inactive); with HOP-18, 3.59 µM (inactive). Besides, the GI50 in the test with KM12 was 1.62 µM (inactive); with SK-MEL-2, 3.85 µM (inactive); in the test with OVCAR-8, 0.305 µM (active); in the test on NCI-H460, 1.64 µM (inactive); with OVCAR-3, 3.09 µM (inactive); in the test with HL-60, 22 µM (inactive).

Turning to `c1ccc(COc2ccc(CC3SCCCS3)cc2)cc1`, the GI50 in the test with OVCAR-4, in the test on SNB-19, in the test on MCF7, with SF-295, in the test with SF-268 and in the test with Malme-3M was > 100 µM (inactive) each time. Besides, the GI50 was > 100 µM (inactive) with HCC 2998; 52.5 µM (inactive) with K562; > 100 µM (inactive) in the test with OVCAR-8; > 100 µM (inactive) in the test with A549; 65.8 µM (inactive) in the test on NCI-H460; > 100 µM (inactive) in the test on OVCAR-3. In the test with HL-60, the GI50 was 23.2 µM (inactive).

On to `Cc1cc(O)nc(NN2C(Cl)C(=O)C2c2cccc(O)c2)n1` (centres undefined), for which the GI50 in the test with OVCAR-4 is > 100 µM (inactive); with SNB-75, 1.64 µM (inactive); in the test with SN12C it was 6.31 µM (inactive); with SNB-19, 3.48 µM (inactive); in the test with SNB-78 it was 7.43 µM (inactive); in the test with SF-268, 5.62 µM (inactive). Besides, the GI50 is 3.13 µM (inactive) in the test on DMS-273; 15.1 µM (inactive) with HCC 2998; 2.7 µM (inactive) in the test on K562; 2.39 µM (inactive) in the test with HOP-18; 7.1 µM (inactive) with KM12; 4.43 µM (inactive) in the test with SK-MEL-2. Further, the GI50 in the test on OVCAR-8 is 7.21 µM (inactive); with A549, 4.44 µM (inactive); in the test with NCI-H460, 4.82 µM (inactive); in the test with OVCAR-3 it was 3.14 µM (inactive); in the test on HL-60, 4.26 µM (inactive).
